For five compounds, EC50 results are on record in patent US11382956B2, “Amylin analogues” (Zealand Pharma A/S, priority 2016, dated 2022).

SMILES strings stand for the structures. Numbered stars: 1 amine (or outer) side, 2 acyl side, 3 side chain; on linkers, the order of the positions; unused ones are H or OH. Bridge positions count the residues as written; N and C are the ends. Square brackets hold non-standard residues; d marks the D form. Peptide text beside a SMILES is read from it. * marks the point of attachment. C20 diacid = O=C(O)CCCCCCCCCCCCCCCCCCC(=O)*; γGlu = O=C(O)[C@H](CCC(=O)[*:2])N[*:1]; Hyp = O=C(O)[C@@H]1C[C@@H](O)CN1; NMeI = CC[C@H](C)[C@H](NC)C(=O)O; Aad = N[C@@H](CCCC(=O)O)C(=O)O; Orn = NCCC[C@H](N)C(=O)O; Dap = NC[C@H](N)C(=O)O; Sar = CNCC(=O)O

In general, EC50 refers to the midpoint of the concentration-response curve.

In assay [1] the target is T1, recombinant human calcitonin receptor (hCT-R) (Homo sapiens, UniProt P30988).
T1 construct: host or cells: human astrocytoma cell line 1321N1
T1 sequence (P30988 25-474): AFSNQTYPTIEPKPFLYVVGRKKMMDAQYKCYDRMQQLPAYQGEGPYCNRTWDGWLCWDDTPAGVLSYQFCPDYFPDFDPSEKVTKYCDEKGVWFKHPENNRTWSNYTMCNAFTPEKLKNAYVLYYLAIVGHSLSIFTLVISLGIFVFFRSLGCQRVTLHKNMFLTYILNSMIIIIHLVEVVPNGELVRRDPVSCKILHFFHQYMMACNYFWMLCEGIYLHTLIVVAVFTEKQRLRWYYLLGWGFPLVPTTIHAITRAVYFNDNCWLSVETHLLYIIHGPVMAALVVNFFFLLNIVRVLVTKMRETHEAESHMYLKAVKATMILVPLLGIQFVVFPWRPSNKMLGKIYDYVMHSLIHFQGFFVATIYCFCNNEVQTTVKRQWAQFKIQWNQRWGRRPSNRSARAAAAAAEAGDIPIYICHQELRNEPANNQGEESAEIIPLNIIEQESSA
Kind of assay: hCT-R cAMP assay (AlphaScreen) in 1321N1 cells. It is filed as cell-based. To be noted: cAMP formation, 45 min stimulation. From the text:
(§1) For the assessment of the in vitro activity of test peptides, cell lines expressing recombinant human calcitonin receptor (hCT-R) or recombinant human amylin 3 receptor (hAMYR3) in the background of the human astrocytoma cell line 1321N1 were purchased from DiscoveRx Corporation (Cat. No. 95-016106 and 95-0166C6). The hAMYR3 is a hetero-oligomer of the calcitonin receptor (Isoform 2; Gene ID 799) and RAMPS (Gene ID 10268) that forms when both genes are expressed in the same cell. The hCT-R cell line expresses only the recombinant human calcitonin receptor gene (Isoform 2; Gene ID 799). Upon activation of hCT-R or hAMYR3 by the test peptides the formation of cAMP is induced and was measured using the AlphaScreen® cAMP Assay kit from Perkin-Elmer (Cat. No. 6760635R).
(§2) Briefly, 1321N1 cells expressing hCT-R or hAMYR3 were seeded in 384-well microtiter plates (Falcon Optilux White, Cat.-No. 10448642) at 5,000 cells in […] growth medium per well (AssayComplete 1321N1 Cell Culture Kit, DiscoveRx Corp.), and incubated for 24 h at 37° C., 5% CO2. On the day of analysis growth medium was removed and the cells were stimulated by adding 10 μL of stimulation buffer (10 […], 0.1% BSA) containing increasing concentrations of test peptides, and incubation for 45 min at room temperature. The stimulation was stopped by adding 5.6 μL/well donor bead detection mix (5 mM Hepes pH7.4, 0.5% TWEEN 20, 0.1% BSA, 0.05 mg/mL donor beads, 62.5 nM biotinylated cAMP) and 4.5 μL/well acceptor bead solution (5 mM Hepes pH7.4, 0.5% TWEEN 20, 0.1% BSA, 0.05 mg/mL acceptor beads). After thorough mixing the plates were incubated in the dark for 1 h at room temperature and the cAMP content of the resulting cell lysates was estimated according to the AlphaScreen® cAMP Assay manufacturer's instructions. EC50 values were estimated by computer-aided curve fitting of results of at least 7 different compound concentrations.
A general note: Changes in cAMP serve as a functional read-out for many G protein-coupled receptors.

The target in assay [2] is T2, recombinant human amylin 3 receptor (hAMYR3) (Homo sapiens, UniProt O60896+P30988).
T2 construct: host or cells: human astrocytoma cell line 1321N1
T2 sequence (P30988 25-474): T1 sequence (P30988 25-474)
T2 sequence (O60896 24-148 partner): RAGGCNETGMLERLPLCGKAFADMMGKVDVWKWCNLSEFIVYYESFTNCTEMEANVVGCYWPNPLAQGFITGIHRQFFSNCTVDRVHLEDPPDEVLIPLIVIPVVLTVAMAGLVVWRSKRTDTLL
Kind of assay: hAMYR3 cAMP assay (AlphaScreen) in 1321N1 cells. It is filed as cell-based. The settings on record: cAMP formation, 45 min stimulation.
From the text: as §1, §2

Turning to `CC[C@H](C)[C@@H](C(=O)N1CCC[C@H]1C(=O)N[C@@H](CO)C(=O)N[C@@H](CO)C(=O)N[C@H](C(=O)N[C@@H](CCC(=O)O)C(=O)N[C@H](C(=O)NCC(=O)N[C@@H](CO)C(=O)N[C@@H](CC(N)=O)C(=O)N[C@H](C(=O)N1C[C@H](O)C[C@H]1C(N)=O)[C@@H](C)O)C(C)C)[C@@H](C)O)N(C)C(=O)[C@H](C)NC(=O)CN(C)C(=O)[C@H](Cc1ccccc1)NC(=O)[C@@H](NC(=O)[C@@H](NC(=O)[C@H](CCCNC(=N)N)NC(=O)[C@H](CCC(N)=O)NC(=O)[C@H](CC(C)C)NC(=O)[C@H](Cc1ccccc1)NC(=O)[C@H](CCCC(=O)O)NC(=O)[C@H](C)NC(=O)[C@H](CC(C)C)NC(=O)[C@H](CCCNC(=N)N)NC(=O)[C@H](CCC(=O)O)NC(=O)[C@@H](NC(=O)[C@H](C)NC(=O)[C@@H]1CCCNC(=O)C[C@H](NC(=O)[C@H](CCCNC(=N)N)NC(=O)CC[C@H](NC(=O)CCCCCCCCCCCCCCCCCCC(=O)O)C(=O)O)C(=O)NCC(=O)N[C@@H]([C@@H](C)O)C(=O)N[C@@H](C)C(=O)N[C@@H]([C@@H](C)O)C(=O)N1)[C@@H](C)O)[C@@H](C)O)[C@@H](C)O` [Compound 24, [19CD]-isoGlu-RD()GTAT-Orn()-ATERLA-Aad-FLQRTTF-Gly(Me)-A-Ile(Me)-PSSTEVGSNT-Hyp-NH2] ({C20 diacid-γGlu}-RDGTAT[Orn]ATERLA[Aad]FLQRTTF[Sar]A[NMeI]PSSTEVGSNT[Hyp]-NH2; lactam 2-7), the figures for the EC50 in assay [1] and in assay [2] were 0.038 nM and 0.013 nM, respectively.

In the case of `CC[C@H](C)[C@@H](C(=O)N[C@@H](CC(C)C)C(=O)N[C@@H](CO)C(=O)N[C@@H](CO)C(=O)N[C@H](C(=O)N[C@@H](CCC(=O)O)C(=O)N[C@H](C(=O)NCC(=O)N[C@@H](CO)C(=O)N[C@@H](CC(N)=O)C(=O)N[C@H](C(=O)N1C[C@H](O)C[C@H]1C(N)=O)[C@@H](C)O)C(C)C)[C@@H](C)O)N(C)C(=O)[C@H](C)NC(=O)CN(C)C(=O)[C@H](Cc1ccccc1)NC(=O)[C@H](CO)NC(=O)[C@H](CO)NC(=O)[C@H](CCCNC(=N)N)NC(=O)[C@H](CCC(N)=O)NC(=O)[C@H](CC(C)C)NC(=O)[C@H](Cc1ccccc1)NC(=O)[C@H](Cc1c[nH]cn1)NC(=O)[C@H](C)NC(=O)[C@H](CC(C)C)NC(=O)[C@H](CCCNC(=N)N)NC(=O)[C@H](CCC(=O)O)NC(=O)[C@@H](NC(=O)[C@H](C)NC(=O)[C@@H]1CC(=O)NC[C@H](NC(=O)[C@H](CCCNC(=N)N)NC(=O)CC[C@H](NC(=O)CCCCCCCCCCCCCCCCCCC(=O)O)C(=O)O)C(=O)NCC(=O)N[C@@H]([C@@H](C)O)C(=O)N[C@@H](C)C(=O)N[C@@H]([C@@H](C)O)C(=O)N1)[C@@H](C)O` [Compound 45, [19CD]-isoGlu-R-Dap()-GTATD()ATERLAHFLQRSSF-Gly(Me)-A-Ile(Me)-LSSTEVGSNT-Hyp-NH2] ({C20 diacid-γGlu}-R[Dap]GTATDATERLAHFLQRSSF[Sar]A[NMeI]LSSTEVGSNT[Hyp]-NH2; lactam 2-7), the half-maximal effective concentration (EC50) worked out at 299 nM in assay [1] and 279 nM in assay [2].

For `CC[C@H](C)[C@@H](C(=O)N[C@@H](CC(C)C)C(=O)N[C@@H](CO)C(=O)N[C@@H](CO)C(=O)N[C@H](C(=O)N[C@@H](CCC(=O)O)C(=O)N[C@H](C(=O)NCC(=O)N[C@@H](CO)C(=O)N[C@@H](CC(N)=O)C(=O)N[C@H](C(=O)N1C[C@H](O)C[C@H]1C(N)=O)[C@@H](C)O)C(C)C)[C@@H](C)O)N(C)C(=O)[C@H](C)NC(=O)CN(C)C(=O)[C@H](Cc1ccccc1)NC(=O)[C@H](C)NC(=O)[C@H](C)NC(=O)[C@H](CCCNC(=N)N)NC(=O)[C@H](CCC(N)=O)NC(=O)[C@H](CC(C)C)NC(=O)[C@H](Cc1ccccc1)NC(=O)[C@H](CCCC(=O)O)NC(=O)[C@H](C)NC(=O)[C@H](CC(C)C)NC(=O)[C@H](CCCNC(=N)N)NC(=O)[C@H](CCC(=O)O)NC(=O)[C@@H](NC(=O)[C@H](C)NC(=O)[C@@H]1CCCNC(=O)C[C@H](NC(=O)[C@H](CCCNC(=N)N)NC(=O)CC[C@H](NC(=O)CCCCCCCCCCCCCCCCCCC(=O)O)C(=O)O)C(=O)NCC(=O)N[C@@H]([C@@H](C)O)C(=O)N[C@@H](C)C(=O)N[C@@H]([C@@H](C)O)C(=O)N1)[C@@H](C)O` [Compound 26, [19CD]-isoGlu-RD()GTAT-Orn()-ATERLA-Aad-FLQRAAF-Gly(Me)-A-Ile(Me)-LSSTEVGSNT-Hyp-NH2] ({C20 diacid-γGlu}-RDGTAT[Orn]ATERLA[Aad]FLQRAAF[Sar]A[NMeI]LSSTEVGSNT[Hyp]-NH2; lactam 2-7), the EC50 in assay [1] was determined as 0.769 nM; in assay [2] it was 0.12 nM.

`CC[C@H](C)[C@@H](C(=O)N1CCC[C@H]1C(=O)N[C@@H](CO)C(=O)N[C@@H](CO)C(=O)N[C@H](C(=O)N[C@@H](CCC(=O)O)C(=O)N[C@H](C(=O)NCC(=O)N[C@@H](CO)C(=O)N[C@@H](CC(N)=O)C(=O)N[C@H](C(=O)N1C[C@H](O)C[C@H]1C(N)=O)[C@@H](C)O)C(C)C)[C@@H](C)O)N(C)C(=O)[C@H](C)NC(=O)CN(C)C(=O)[C@H](Cc1ccccc1)NC(=O)[C@H](CO)NC(=O)[C@H](CO)NC(=O)[C@H](CCCNC(=N)N)NC(=O)[C@H](CCC(N)=O)NC(=O)[C@H](CC(C)C)NC(=O)[C@H](Cc1ccccc1)NC(=O)[C@H](Cc1c[nH]cn1)NC(=O)[C@H](C)NC(=O)[C@H](CC(C)C)NC(=O)[C@H](CCCNC(=N)N)NC(=O)[C@H](CCC(=O)O)NC(=O)[C@@H](NC(=O)[C@H](C)NC(=O)[C@@H]1CCCNC(=O)C[C@H](NC(=O)[C@H](CCCNC(=N)N)NC(=O)CC[C@H](NC(=O)CCCCCCCCCCCCCCCCCCC(=O)O)C(=O)O)C(=O)NCC(=O)N[C@@H]([C@@H](C)O)C(=O)N[C@@H](C)C(=O)N[C@@H]([C@@H](C)O)C(=O)N1)[C@@H](C)O` [Compound 5, [19CD]-isoGlu-RD()GTAT-Orn()-ATERLAHFLQRSSF-Gly(Me)-A-Ile(Me)-PSSTEVGSNT-Hyp-NH2] ({C20 diacid-γGlu}-RDGTAT[Orn]ATERLAHFLQRSSF[Sar]A[NMeI]PSSTEVGSNT[Hyp]-NH2; lactam 2-7): the EC50 in assay [1] was 0.114 nM; in assay [2], 0.032 nM.

`CC[C@H](C)[C@@H](C(=O)N[C@@H](CC(C)C)C(=O)N[C@@H](CO)C(=O)N[C@@H](CO)C(=O)N[C@H](C(=O)N[C@@H](CCC(=O)O)C(=O)N[C@H](C(=O)NCC(=O)N[C@@H](CO)C(=O)N[C@@H](CC(N)=O)C(=O)N[C@H](C(=O)N1C[C@H](O)C[C@H]1C(N)=O)[C@@H](C)O)C(C)C)[C@@H](C)O)N(C)C(=O)[C@H](C)NC(=O)CN(C)C(=O)[C@H](Cc1ccccc1)NC(=O)[C@H](CO)NC(=O)[C@H](CO)NC(=O)[C@H](CCCNC(=N)N)NC(=O)[C@H](CCC(N)=O)NC(=O)[C@H](CC(C)C)NC(=O)[C@H](Cc1ccccc1)NC(=O)[C@H](Cc1c[nH]cn1)NC(=O)[C@H](C)NC(=O)[C@H](CC(C)C)NC(=O)[C@H](CCCNC(=N)N)NC(=O)[C@H](CCC(=O)O)NC(=O)[C@@H](NC(=O)[C@H](C)NC(=O)[C@@H]1CNC(=O)CCC[C@H](NC(=O)[C@H](CCCNC(=N)N)NC(=O)CC[C@H](NC(=O)CCCCCCCCCCCCCCCCCCC(=O)O)C(=O)O)C(=O)NCC(=O)N[C@@H]([C@@H](C)O)C(=O)N[C@@H](C)C(=O)N[C@@H]([C@@H](C)O)C(=O)N1)[C@@H](C)O` [Compound 50, [19CD]-isoGlu-R-Aad()-GTAT-Dap()-ATERLAHFLQRSSF-Gly(Me)-A-Ile(Me)-LSSTEVGSNT-Hyp-NH2] ({C20 diacid-γGlu}-R[Aad]GTAT[Dap]ATERLAHFLQRSSF[Sar]A[NMeI]LSSTEVGSNT[Hyp]-NH2; lactam 2-7): the concentration giving a half-maximal response (EC50) turned out to be 3.3 nM in assay [1] and 1.5 nM in assay [2].
